The subject of data set [1] is DEBSMod6+TE. Briefly: Covalent inhibition assay for DEBSMod6+TE. Type of data set: biochemical. Conditions: 18 h incubation in F-TKL reaction, then tested for TKL production; preliminary. The method, then: Two triketide reaction mixtures (200 μL) were prepared as described above, one containing fluoromalonate (10 mM) and the other methylmalonate (10 mM). DEBSMod6+TE (10 μM) and NDK-SNAC (2.5 mM) were added to each and the reactions were incubated at 37° C. for 18 h. The protein fraction was isolated from each mixture at room temperature by desalting on a Sephadex G-25 column (3 mL) using 400 mM sodium phosphate, pH 7.5. Fractions were pooled by Bradford assay and concentrated to 200 μL using Amicon Ultra spin concentrators (3 kDa MWCO). The isolated DEBSMod6+TE was assayed by adding TCEP (2.5 mM), methylmalonyl-CoA (1 mM) and NDK-SNAC (1 mM) to this mixture to give a final volume of 210 μL and incubating at 37° C. for 3 h, then analyzed by HPLC as described above.

Data set [2] is described as follows: Stability of fluoromalonyl-CoA solutions. The note with it: room temperature; in water or D2O. The format is physicochemical. The method, then:
Fluoromalonyl-CoA was prepared enzymatically from fluoromalonate and CoA using MatB and ATP. A myokinase/pyruvate kinase/PEP system was also used to regenerate ATP in order to avoid high concentrations of AMP that might inhibit MatB. The reaction mixture (10 mL) contained 100 mM sodium phosphate, pH 7.5, phosphoenolpyruvate (5 mM), TCEP (2.5 mM), magnesium chloride (5 mM), fluoromalonate (2.5 mM), ATP (2.5 mM), pyruvate kinase (36 U), myokinase (20 U), CoA (2 mM) and MatB (5 μM). The mixture was incubated at 37° C. for 6 h and then at room temperature for 16 h before lyophilizing overnight. The residue was dissolved in water (1.6 mL) and acidified to pH ˜2 by addition of 70% perchloric acid (160 μL). Insoluble material was removed by centrifugation at 18,000×g for 10 min. […] HR-ESI-MS [M−H]^−: calculated for C24H36FN2O19P3S, m/z, 870.0989. found m/z 870.0991.

In data set [3] the target is T1, DEBSMod6+TE (Saccharopolyspora erythraea, UniProt Q03133).
T1 construct: the sixth module of DEBS, including the terminal thioesterase (DEBSMod6+TE); His6 (C); made in house; host or cells: E. coli BAP1
T1 sequence (Q03133 1492-3172): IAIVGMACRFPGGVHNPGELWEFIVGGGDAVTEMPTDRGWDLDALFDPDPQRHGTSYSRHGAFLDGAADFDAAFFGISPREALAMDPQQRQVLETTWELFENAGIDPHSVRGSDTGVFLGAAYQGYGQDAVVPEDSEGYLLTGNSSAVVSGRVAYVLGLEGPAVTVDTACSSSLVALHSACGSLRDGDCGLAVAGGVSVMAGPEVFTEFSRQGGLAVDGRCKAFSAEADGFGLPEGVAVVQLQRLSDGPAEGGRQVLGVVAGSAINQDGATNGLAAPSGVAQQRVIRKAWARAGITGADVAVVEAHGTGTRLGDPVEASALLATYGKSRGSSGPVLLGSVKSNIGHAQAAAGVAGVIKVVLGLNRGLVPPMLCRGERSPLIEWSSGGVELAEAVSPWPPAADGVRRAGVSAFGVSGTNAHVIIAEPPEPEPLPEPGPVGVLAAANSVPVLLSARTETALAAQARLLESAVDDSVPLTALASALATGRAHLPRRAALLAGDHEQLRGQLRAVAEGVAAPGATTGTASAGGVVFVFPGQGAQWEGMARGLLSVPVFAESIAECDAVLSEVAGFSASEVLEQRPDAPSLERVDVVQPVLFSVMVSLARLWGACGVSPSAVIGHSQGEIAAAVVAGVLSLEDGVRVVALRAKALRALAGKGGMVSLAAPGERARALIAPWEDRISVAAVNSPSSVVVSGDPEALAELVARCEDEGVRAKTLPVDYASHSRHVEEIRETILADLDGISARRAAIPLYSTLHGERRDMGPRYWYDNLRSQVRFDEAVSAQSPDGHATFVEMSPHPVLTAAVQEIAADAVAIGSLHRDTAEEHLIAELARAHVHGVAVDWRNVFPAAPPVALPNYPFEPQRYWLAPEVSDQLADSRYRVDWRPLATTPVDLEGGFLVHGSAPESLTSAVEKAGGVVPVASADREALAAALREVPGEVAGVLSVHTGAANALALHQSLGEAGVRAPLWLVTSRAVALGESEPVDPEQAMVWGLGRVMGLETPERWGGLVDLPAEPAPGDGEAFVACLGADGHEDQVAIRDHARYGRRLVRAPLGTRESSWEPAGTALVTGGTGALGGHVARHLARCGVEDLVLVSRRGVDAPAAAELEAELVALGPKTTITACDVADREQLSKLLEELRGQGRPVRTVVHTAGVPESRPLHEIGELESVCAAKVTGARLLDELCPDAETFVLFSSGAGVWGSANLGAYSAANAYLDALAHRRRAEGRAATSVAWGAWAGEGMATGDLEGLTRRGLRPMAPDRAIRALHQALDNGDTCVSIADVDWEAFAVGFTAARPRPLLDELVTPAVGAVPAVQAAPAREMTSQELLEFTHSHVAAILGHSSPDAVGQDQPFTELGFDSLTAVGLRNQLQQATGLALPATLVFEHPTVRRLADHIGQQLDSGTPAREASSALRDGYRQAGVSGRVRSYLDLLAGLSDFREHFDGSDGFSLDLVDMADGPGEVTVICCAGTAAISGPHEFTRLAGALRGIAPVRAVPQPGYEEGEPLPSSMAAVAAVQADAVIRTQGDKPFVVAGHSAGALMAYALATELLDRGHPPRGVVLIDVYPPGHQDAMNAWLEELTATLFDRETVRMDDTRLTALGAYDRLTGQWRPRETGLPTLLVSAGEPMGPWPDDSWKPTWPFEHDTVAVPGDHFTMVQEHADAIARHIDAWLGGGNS
Briefly: Acyl-CoA hydrolysis by DEBSMod6+TE (DTNB assay). The format is biochemical. How it is done: Hydrolytic activity of DEBSMod6+TE was measured by monitoring the reaction of free CoA with DTNB as described previously (Huang, F., et al., Chem. Biol., 13:475-484 (2006)). Assays were performed at 37° C. in a total volume of 200 μL containing 400 mM sodium phosphate, pH 7.5, 500 μM DTNB, and DEBSMod6+TE (1 μM). Reactions were initiated by addition of acyl-CoA (0.5 mM) and monitored at 412 nm in a Beckman Coulter DU-800 spectrophotometer. Release of CoA was quantified by comparison to a standard curve (5-100 μM).

The subject of data set [4] is malonyl-CoA synthetase (MatB). Briefly: Malonyl-CoA synthetase (MatB) coupled assay. The format is biochemical, S. coelicolor. How it is done: MatB activity was measured using a modified literature method (Williamson, J. R., et al., Method. Enzymol., 434-513 (1969)). The production of AMP was coupled to pyruvate formation by myokinase and pyruvate kinase, which in turn was coupled to NADH oxidation by lactate dehydrogenase. Assays were performed at 30° C. in a total volume of 200 μL containing 100 mM HEPES, pH 7.5, TCEP (1 mM), ATP (2.5 mM), magnesium chloride (5 mM), phosphoenolpyruvate (1 mM), NADH (0.3 mM), myokinase (0.5 U), pyruvate kinase (3.6 U), lactate dehydrogenase (2.6 U), dicarboxylic acid (25 μM-1 mM malonate, 50 μM-10 mM fluoromalonate or 25 μM-1.5 mM methylmalonate) and MatB (26 nM for malonate, 1 μM for fluoromalonate and 200 nM for methylmalonate). The reaction was initiated with addition of CoA (0.5 mM) and monitored at 340 nm in a Beckman Coulter DU-800 spectrophotometer.

Experimental findings from US9944967B2, “Methods for the site-selective introduction of halogen into natural products” (THE REGENTS OF THE UNIVERSITY OF CALIFORNIA, priority 2013, dated 2018) are described below.

Take `CC(C)(COP(=O)(O)OP(=O)(O)OC[C@H]1O[C@@H](n2cnc3c(N)ncnc32)[C@H](O)[C@@H]1OP(=O)(O)O)[C@@H](O)C(=O)NCCC(=O)NCCSC(=O)C(F)C(=O)O` (some centres unmarked) [Fluoromalonyl-CoA]: the “covalent inactivation of DEBSMod6+TE” value in the data set on DEBSMod6+TE [1] is listed as “not due to covalent inactivation of the enzyme”. The stability of solutions entry in data set [2] is listed as “at least 24 h”. Further, the “v0 (rate of acyl-CoA hydrolysis)” value at DEBSMod6+TE [3] (DEBSMod6 + TE (1 μM), acyl-CoA (500 μM), mean ± s.d. (n = 4)) turned out to be 3.5 ± 0.3 µM/min. Moreover, the “Relative rate of acyl-CoA hydrolysis” value at DEBSMod6+TE [3] (relative to methylmalonyl-CoA) is 2.6.
For the compound Fluoromalonate, in data set [4], the “selectivity of MatB for malonate over fluoromalonate” value was 103 fold.
